# Legend:
# BRD4 recruitment sites = test: Global ChIP-Seq for BRD4 recruitment; type: cell-based, human; conditions: combined IFN and TSA treatment
# Description: To directly assess the effect of IFN and HDAC inhibition on BRD4 recruitment, we assayed the presence of BRD4 at ISG promoters by ChIP. BRD4 was recruited to three typical ISG promoters after 1 h of IFN stimulation. Importantly, this recruitment was abrogated by TSA, and, by JQ-1 (FIG. 5F). We also performed global ChIP-Seq for BRD4 recruitment.
# ChIP-Seq libraries were made using the KAPA Hyper Prep kit (Roche, KK8504) using 25 ng of DNA per sample, according to the manufacturer's protocol for end repair and A-tailing. For adapter ligation, 8-nt multiplexing IDT (Integrated DNA Technologies) adapters (5 μM) were used. […] Libraries were sequenced on an Illumina HiSeq 4000 instrument, using a single read 50 protocol; 8 samples were pooled in one lane of a high output single read flow cell. […]
# ChIP-Seq data analysis was carried out using the HiC-Bench pipeline (Lazaris et al., 2017, BMC Genomics 18:22). GenomicTools (Tsirigos et al., 2012, Bioinformatics 28:282-283), SAMtools (Li et al., 2009, Bioinformatics 25:2078-2079), DeepTools (Ramirez et al., 2016, Nucleic Acids Res. 44:W160-165), BEDTools (Quinlan and Hall, 2010, Bioinformatics 26:841-842), BigBed Tools (Kent et al., 2010, Bioinformatics 26:2204-2207), Picard Tools (https://broadinstitute.github.io/picard/), and R (https://www.R-project.org/) were used to analyze the sequenced reads and to check the quality of alignment. […]
# [1] = tested on: p21^Cip1/wAF1 expression in HeLa cells; test: p21 Cip1/WAF1 expression in HeLa cells, real-time RT-PCR (control for HDAC inhibition); type: cell-based, human; conditions: IFN-α 6 h, FIG. 1B
# Description: FIG. 1. Class I HDAC mediates ISG expression. (A, B) HeLa cells were treated with IFN-α for 6 h in the absence or presence of increasing concentrations of Romidepsin or TSA, as indicated. RNA was quantified by real-time RT-PCR for ISG54 and p21^wAF1/Cip1 expression, normalized to GAPDH, and represented as fold induction over untreated cells. (C) HeLa cells were treated with IFN-α for 6 h in the absence or presence of increasing concentrations of romidepsin, RGFP966, or RGFP233, as indicated. RNA was quantified by real-time RT-PCR for IRF9 expression, normalized to GAPDH and represented as fold induction over untreated cells. HEK293 cells were transfected with siRNA against HDAC1, HDAC2, or E2F4 separately (D) or with a combination of HDAC1 and HDAC2 targeting oligonucleotides (E) and cells were stimulated with IFN-α for 6 h (α) in the presence (αT) or absence of TSA, as indicated. Whole cell extracts were analyzed for expression of the indicated proteins by western blotting (left panels). ISG54 expression was quantified by real-time RT-PCR, and represented as fold induction over untreated cells (right panels). (F) HEK293T cells were transfected with pcDNA3 (Ctl), HDAC1, or HDAC2 expression constructs, and ISG54 expression was quantified after stimulation with IFN-α for 10 h. […] Nuclear extracts were analyzed for expression of Sin3B by western blotting (middle panels). […]
smiles,measurement,setting,value
"CC(/C=C/C(=O)NO)=C\[C@@H](C)C(=O)c1ccc(N(C)C)cc1 [TSA, Trichostatin A]",sites of IFN-dependent BRD4 recruitment (366 detected) abrogated,BRD4 recruitment sites,all by 4 of which were abrogated
same,p21 Cip1/WAF1 expression,[1],led to p21^Cip1/wAF1 expression

# From patent US20190351012A1, “TARGETING OF INTERFERON-STIMULATED GENE EXPRESSION TO TREAT INTERFERONOPATHIES” (New York University, priority 2018, published 2019)
